Measured values taken from patent publication US20060003410A1, “Prostaglandin reductase” (priority 2004, published 2006).
One block for each molecule: values may come before it.

Tests used:
[1] = target: T1, recombinant mouse PGR-2 protein (Mus musculus, UniProt Q8VDQ1); assay: Substrate specificity of PGR-2 (NADPH consumption, absorbance at 490 nm); assay type: biochemical; conditions: 10 μg recombinant mouse PGR-2, 0.5 mM NADPH, substrate replacing 15-keto PGE2, 37° C., 10 minutes
T1 construct: The coding region of PGR-2 open reading frame was then subcloned to the expression vector pCMV-Tag2B; GST (N); made in house; host or cells: E. coli (pGEX-4T-3 vector)
Protocol: (§1) Mouse PGR-2 was recombinantly expressed in E.coli as a GST fusion protein following standard procedures. The recombinant PGR-2 protein thus obtained was used to determine substrate specificity and enzymatic kinetics.
(§2) Enzymatic activity was determined as follows. 10 μg of the recombinant mouse PGR-2 protein was incubated at 37° C. in a reaction buffer containing 0.1M Tris-HCl (pH7.4), 0.5 mM NADPH, and 0.57 mM 15-keto PGE2. The reaction was conducted at 37° C. in the dark for 10 minutes and terminated by adding 700 μl of a buffer which contained 50 mM potassium hydrogen phthalate, pH 3.0, and 1% Tween 20. 200 μl of a color development reagent, which contained 790 μM indonitrotetrazolium chloride, 60 μM phenazene methosulfate, and 1% Tween 20, was added to oxidize any unreacted NADPH. Absorbance at 490 nm was measured by an ELISA plate reader. A standard curve was generated using reaction buffers containing serially diluted amounts of NADPH.
Substrate specificity of PGR-2 was determined using the just-described procedure, except that 15-keto PGE2 was replaced with each of six prostaglandin substrates, each of three downstream metabolites, or leukotriene B4.

[2] = system: endogenous PPAR; assay: Reporter gene assay of endogenous PPAR activity in differentiating 3T3-L1 cells; assay type: cell-based, mouse; conditions: 3T3-L1 cells induced to differentiate for two days, transfected with a reporter gene
Protocol: (§3) The effect of prostaglandin on PPAR-gamma activity in adipocytes was investigated. After treatment with a medium that induces cell differentiation, 3T3-L1 cells were treated from day 2 to 4 during adipogenesis with 14 μM 15-keto PGE2, 13,14-dihydro-15-keto PGE2 , 15-keto PGF2α, 13,14-dihydro-15-keto PGF2α, or 4.5 μm of BRL49653, a PPAR-gamma agonist. See Forman et al., Cell (1995) 83:803-812. At day 6, aggregates of lipid droplets were stained with oil-red O for observation. […] After being induced to differentiate for two days, the 3T3-L1 cells were transfected with a reporter gene.

[3] = target: T1, recombinant mouse PGR-2 protein; assay: Kinetics studies of PGR-2 catalyzed conversion; assay type: biochemical; conditions: order: 15-keto PGE2, then 15-keto PGF1α, 15-keto PGE1, 15-keto PGF2α
Protocol: as §1, §2
Unlike PGR/LTB4DH, PGR-2 used NADPH as a cofactor much more efficiently than NADH.

[4] = system: 3T3-L1 cells; assay: Adipogenesis in 3T3-L1 cells, lipid droplets stained with oil-red O; assay type: cell-based, mouse; conditions: 14 μM, treated day 2 to 4 during adipogenesis, stained at day 6
Protocol: as §3

[5] = system: PPAR-gamma; assay: Luciferase reporter with PPAR-gamma ligand-binding domain fused to yeast GAL4 DNA-binding domain in 3T3-L1 cells; assay type: cell-based
Text: (§4) A luciferase reporter gene was transfected to 3T3-L1 cells together with the ligand-binding domain of PPAR-alpha, PPAR-gamma or PPAR-delta fused to a yeast GAL4 DNA-binding domain.

[6] = target: T2, PPAR-alpha (Homo sapiens, UniProt Q07869); assay: Luciferase reporter with PPAR-alpha ligand-binding domain fused to yeast GAL4 DNA-binding domain in 3T3-L1 cells; assay type: cell-based; conditions: compared with PPAR-gamma
T2 construct: expressed in transfected cells; host or cells: 3T3-L1 cells
T2 sequence (Q07869 239-466 limits assumed): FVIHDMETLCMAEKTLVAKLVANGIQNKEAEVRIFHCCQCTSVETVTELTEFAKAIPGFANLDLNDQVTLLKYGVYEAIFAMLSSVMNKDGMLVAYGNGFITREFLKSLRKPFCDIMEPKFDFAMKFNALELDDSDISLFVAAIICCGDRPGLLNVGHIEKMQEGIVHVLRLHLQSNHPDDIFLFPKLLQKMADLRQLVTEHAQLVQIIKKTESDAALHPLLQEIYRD
Text: as §4

[7] = system: 3T3-L1 cells; assay: Protein expression of adipogenesis-specific, PPAR-gamma target genes in 3T3-L1 cells; assay type: cell-based, mouse; conditions: for IRS-1 protein expression: 3T3-L1 cells
Text: Also examined was the ability of 15-keto PGE2 to induce protein expression of adipogenesis-specific, PPAR-gamma target genes, i.e., IRS-1 and -2.

T1 sequence (Q8VDQ1 whole entry): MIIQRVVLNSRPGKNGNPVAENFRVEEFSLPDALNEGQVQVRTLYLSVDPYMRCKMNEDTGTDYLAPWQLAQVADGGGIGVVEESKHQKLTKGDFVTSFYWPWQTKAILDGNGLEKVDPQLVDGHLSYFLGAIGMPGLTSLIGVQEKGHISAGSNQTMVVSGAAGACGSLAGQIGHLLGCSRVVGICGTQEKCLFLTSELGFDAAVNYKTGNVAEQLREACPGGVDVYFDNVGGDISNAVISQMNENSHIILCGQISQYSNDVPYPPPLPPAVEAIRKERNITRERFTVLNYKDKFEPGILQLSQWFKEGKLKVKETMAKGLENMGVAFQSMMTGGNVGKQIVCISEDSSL

Compound: CCCCC[C@H](O)/C=C/[C@@H]1[C@@H](CC(=O)CCCCC(=O)O)[C@@H](O)C[C@H]1O [6-keto PGF1α]
specific activity with PGR-2 (substrate specificity) [1]: no specific activity was detected

Compound: CCCCCC(=O)/C=C/[C@H]1[C@H](O)CC(=O)[C@@H]1CCCCCCC(=O)O [15-keto PGE1]
specific activity with PGR-2 (substrate specificity) [1]: reacted specifically with PGR-2

Compound: CCCCCC(=O)/C=C/[C@H]1[C@H](O)CC(=O)[C@@H]1C/C=C\CCCC(=O)O [15-keto PGE2]
efficiency of PGR-2 catalyzed conversion (rank order) [3]: most efficiently | adipogenesis (aggregates of lipid droplets, oil-red O) [4]: effectively enhanced adipogenesis at a level similar to BRL49653 | endogenous PPAR activity (reporter gene) [2]: enhanced endogenous PPAR activity significantly | activation of PPAR-gamma (GAL4 fusion, luciferase reporter) [5]: activated | activation of PPAR-alpha (GAL4 fusion, luciferase reporter) [6]: to a lesser degree | IRS-1 protein expression [7]: did not increase | PPAR-gamma1 and PPAR-gamma2 protein expression ([7]; added with MIX, insulin and dexamethasone): significantly enhanced | expression of aP2, an adipocyte-specific marker ([7]; even in the absence of MIX): strongly induced | IRS-2 expression ([7]; in the presence of insulin and dexamethasone): enhanced the expression to a level similar to MIX

Compound: CCCCCC(=O)/C=C/[C@@H]1[C@@H](CCCCCCC(=O)O)[C@@H](O)C[C@H]1O [15-keto PGF1α]
specific activity with PGR-2 (substrate specificity) [1]: reacted specifically with PGR-2

Compound: CC(C)Cn1c(=O)n(C)c(=O)c2[nH]cnc21 [MIX, methylisobutylxanthine]
IRS-1 protein expression [7]: induced IRS-1 expression

Compound: CCCCC/C=C\C[C@@H](O)/C=C/C=C/C=C\[C@@H](O)CCCC(=O)O [leukotriene B4]
specific activity with PGR-2 (substrate specificity) [1]: no specific activity was detected

The next lines start with results.

specific activity with PGR-2 (substrate specificity) [1]: no specific activity was detected
Compound: CCCCC[C@H](O)/C=C/[C@@H]1[C@@H](C/C=C\CCCC(=O)O)[C@@H](O)C[C@@H]1O [11b-PGF2α]

specific activity with PGR-2 (substrate specificity) [1]: no specific activity was detected
Compound: CCCCCC(=O)CCC1C(=O)CC(O)C1C/C=C\CCCC(=O)O (stereo not shown) [13,14-dihydro-15-keto PGD2]

specific activity with PGR-2 (substrate specificity) [1]: no specific activity was detected
Compound: CCCCCC(=O)CC[C@H]1[C@H](O)CC(=O)[C@@H]1C/C=C\CCCC(=O)O [13,14-dihydro-15-keto PGE2]
endogenous PPAR activity (reporter gene) [2]: failed to increase PPAR activity

specific activity with PGR-2 (substrate specificity) [1]: no specific activity was detected
Compound: CCCCCC(=O)CC[C@@H]1[C@@H](C/C=C\CCCC(=O)O)[C@@H](O)C[C@H]1O [13,14-dihydro-15-keto PGF2α]
endogenous PPAR activity (reporter gene) [2]: failed to increase PPAR activity

specific activity with PGR-2 (substrate specificity) [1]: reacted specifically with PGR-2 | activation of PPAR-alpha (GAL4 fusion, luciferase reporter) [6]: to a lesser degree
Compound: CCCCCC(=O)/C=C/[C@@H]1[C@@H](C/C=C\CCCC(=O)O)[C@@H](O)C[C@H]1O [15-keto PGF2α]
endogenous PPAR activity (reporter gene) [2]: enhanced endogenous PPAR activity significantly | activation of PPAR-gamma (GAL4 fusion, luciferase reporter) [5]: activated

specific activity with PGR-2 (substrate specificity) [1]: no specific activity was detected
Compound: CCCCC[C@H](O)/C=C/[C@@H]1[C@@H](C/C=C\CCCC(=O)O)[C@H](O)C[C@H]1O [PGF2β]
